Tests used:
Type in all cases: in vivo
[1] = tested on: normotensive dogs; assay: Intraocular pressure (IOP) in normotensive dogs
Protocol: Compounds from above are tested in vivo to measure its ability to reduce intraocular pressure. Compound 14a is tested in normotensive dogs.

[2] = tested on: laser-induced hypertensive monkeys; assay: Intraocular pressure (IOP) in laser-induced hypertensive monkeys
[3] = tested on: lashes and adjacent hairs of patients; assay: Lash and hair appearance in glaucoma patients treated in one eye only; conditions: glaucoma patient treated in one eye
Text: In the course of treating patients having glaucoma, treatment may only be appropriate in one eye. […] The lash appearance on the lids of the treated eyes would have appeared quite attractive if it represented a bilateral phenomenon. As a result of its asymmetric nature, the long lashes on one side could be construed as disturbing from a cosmetic standpoint. A systemic examination was preformed as a result of the asymmetric phenomenon. It soon became apparent that this altered appearance was not an isolated finding. […] Definite differences could be identified to varying degrees in the lashes and adjacent hairs of all patients who were taking the drug on a unilateral basis for longer than 6 months.
The changes in the lashes were apparent on gross inspection in several patients once attention was focused on the issue. In those with light colored hair and lashes, the differences were only seen easily with the aid of the high magnification and lighting capabilities of the slit lamp biomicroscope. In the course of glaucoma follow-up examination, attention is generally immediately focused on the eye itself. As a result of the high power magnification needed only one eye is seen at a time and the eye is seen at a high enough power that the lashes are not in focus. […]

Structure (SMILES) | intraocular pressure (IOP) change from baseline [1] | intraocular pressure (IOP) change from baseline [2] | lash appearance, treated eye versus non-treated eye [3]
CCCCCC(O)c1ccc(C2C(O)CC(Cl)C2Cc2cccc(CCC(=O)OCCN3CCOCC3)c2)cc1 (centres unmarked) [Compound 25b] | decreases from baseline | decreases from baseline | 
CCCCCC(O)c1ccc(C2C(O)CC(Cl)C2CC=CCCCC(=O)OCCO)cc1 (centres unmarked) [Compound 68a] | decreases from baseline | decreases from baseline | 
CCCCCC(O)c1ccc(C2C(O)CC(Cl)C2CC=CCCCC(=O)OCCO)cc1 (centres unmarked) [Compound 46a] | decreases from baseline | decreases from baseline | 
CCCCCC(O)c1ccc(C2C(O)CC(F)C2CC=CCCCC(=O)OCCO)cc1 (centres unmarked) [Compound 40a] | decreases from baseline | decreases from baseline | 
CCCCCC(O)c1ccc(C2C(O)CC(Cl)C2CCCc2ncc(C(=O)OCCO)s2)cc1 (centres unmarked) [Compound 34a] | decreases from baseline | decreases from baseline | 
CCCCCC(O)c1ccc(C2C(O)CC(Cl)C2CC=CCCCC(=O)OCCN2CCOCC2)cc1 (centres unmarked) [Compound 51b] | decreases from baseline | decreases from baseline | 
CCCCCCc1ccc(C2C(O)CC(Cl)C2CC=CCCCC(=O)OCCN2CCOCC2)cc1 (centres unmarked) [Compound 63b] | decreases from baseline | decreases from baseline | 
CCCCCC(O)c1ccc(C2C(O)CC(Cl)C2CCCc2ncc(C(=O)OCCN3CCOCC3)s2)cc1 (centres unmarked) [Compound 34b] | decreases from baseline | decreases from baseline | 
CCCCCC(O)c1ccc(C2C(O)CC(Cl)C2CC=CCCCC(=O)OCCN2CCOCC2)cc1 (centres unmarked) [Compound 46b] | decreases from baseline | decreases from baseline | 
CCCCCCc1ccc(C2C(O)CC(Cl)C2CC=CCCCC(=O)OCCO)cc1 (centres unmarked) [Compound 63a] | decreases from baseline | decreases from baseline | 
CCNC(=O)CCC/C=C\C[C@@H]1[C@@H](/C=C/[C@@H](O)CCc2ccccc2)[C@H](O)C[C@@H]1O [bimatoprost] |  |  | longer, thicker, and fuller in the treated eye than in the non-treated eye
CCCCCC(O)c1ccc(C2C(O)CC(Cl)C2CC=CCCCC(=O)OCCO)cc1 (centres unmarked) [Compound 51a] | decreases from baseline | decreases from baseline | 
CCCCCC(O)c1ccc(C2C(O)CC(F)C2CC=CCCCC(=O)OCCN2CCOCC2)cc1 (centres unmarked) [Compound 40b] | decreases from baseline | decreases from baseline | 
CCCCCC(O)c1ccc(C2C(O)CC(Cl)C2CC=CCCCC(=O)OCCN2CCOCC2)cc1 (centres unmarked) [Compound 68b] | decreases from baseline | decreases from baseline | 
CCCCCC(O)c1ccc(C2C(O)CC(Cl)C2Cc2cccc(CCC(=O)OCCO)c2)cc1 (centres unmarked) [Compound 25a] | decreases from baseline | decreases from baseline | 
